Values of other authors in publication PMC3035168 (Chemistry & biology, 2010).
Residues, ends and D or L forms follow the SMILES beside them. *: point of attachment. Cbz = O=C(OCc1ccccc1)*; CH2F = FC*

How the values were obtained:
[1] = tested on: HD transgenic mouse models; conditions: ref Chen et al., 2000
[2] = mouse, in vivo
striatal neurons = conditions: ref Schulz et al., 1998

## CN(C)c1ccc(O)c2c1C[C@H]1C[C@H]3[C@H](N(C)C)C(O)=C(C(N)=O)C(=O)[C@@]3(O)C(O)=C1C2=O [minocycline]
[1]; HD transgenic mouse models
  effect on cell death: delays cell death
[1]; through indirect means
  effect on caspase-1 and caspase-3 transcription: inhibits caspase-1 and caspase-3 transcriptional upregulation

## C[C@H](NC(=O)C(=O)Nc1ccccc1C(C)(C)C)C(=O)N[C@@H](CC(=O)O)C(=O)COc1c(F)c(F)cc(F)c1F [IDN-6556]
[2]
  toxicity: nontoxic

## COC(=O)C[C@H](NC(=O)[C@H](C)NC(=O)[C@@H](NC(=O)OCc1ccccc1)C(C)C)C(=O)CF [zVAD-fmk] (Cbz-Val-Ala-Asp(OMe)-CH2F)
Striatal neurons
  protection against malonate-induced excitoxicity: protected striatal neurons
